Experimental data: patent US20250099466A1 (BRISTOL-MYERS SQUIBB COMPANY, priority 2021, published 2025)
Oligonucleotides are written 5' to 3', each unit as a sugar letter and its base; * is a phosphorothioate linkage, no mark a phosphodiester; rarer units and linkages stand in square brackets, end groups in braces. Plain capitals give the bases only. e = 2'-O-(2-methoxyethyl) (MOE); [5mC] = 5-methylcytosine; d = 2'-deoxy (DNA)

Tested on: electrically induced carotid artery thrombosis (ECAT) in rabbits; rabbit FXI mRNA
Test: Rabbit ECAT model after FXI antisense oligonucleotide treatment
Assay type: in vivo
Details: subcutaneous twice weekly for 4 weeks
Procedure: The rabbit ECAT model, described by Wong et al. was used in the rabbit ECAT study (Wang et al. J. Pharmacol. Exp. Ther. 295:212-8, 2002). The ECAT model was conducted 3 to 4 days after the last dose of vehicle, FXI-ASO2, or FXI-ASO1. FXI-ASO1 has the nominal nucleotide sequence of […] (SEQ ID NO: 1) and is complementary to a sequence within rabbit FXI mRNA. FXI-ASO2 (control ASO) has the nominal nucleotide sequence of […] (SEQ ID NO: 2) and has no known complementary sequence in rabbit mRNA. Oligonucleotides were chemically modified with phosphorothioate in the backbone and 2′-O-methoxyethyl on the wings with a central deoxy gap (so-called 5-10-5 design). Cytosine bases were rendered as 5-methylcytosine.
Separate samples for each dose of FXI-ASO1 and FXI-ASO2 were weighed on an analytical balance. […]
Male New Zealand White rabbits were anesthetized with ketamine (50 mg/kg+50 mg/kg/h intramuscularly) and xylazine (10 mg/kg+10 mg/kg/h intramuscularly). […] Carotid blood flow was measured with an electromagnetic flow probe continuously beginning 30 min before the electrical stimulation and over a 90-min period after stimulation to monitor thrombosis-induced occlusion. Integrated carotid blood flow, as a percentage of pre-electrical stimulation control period, was measured by the area under the flow-time curve. […]

FXI-ASO2: control ASO CCTTCCCTGAAGGTTCCTCC (SEQ ID NO: 2), no known complementary sequence in rabbit mRNA (e[5mC]*e[5mC]*eT*eT*e[5mC]*d[5mC]*d[5mC]*dT*dG*dA*dA*dG*dG*dT*dT*e[5mC]*e[5mC]*eT*e[5mC]*e[5mC])
thrombus weight: did not reduce thrombus weight
